Results on two molecules are retold here after patent publication US11345725B2, “Bis-thioether stapled peptides as inhibitors of PRC2 function” (Research Foundation of the City University of New York, priority 2019, dated 2022).

Entries after “also recorded” stand apart in the source; their conditions may differ. Starred links: 1 amine or outer side, 2 acyl side, 3 side chain; linkers in the order of their positions; H or OH if unused. Positions of bridges follow the written chain, without caps; N, C: chain ends. Residues, ends and D or L forms follow the SMILES beside them. X1 = C(C[*:1])C[*:2]

In one data set the target is T1, α-chymotrypsin (Bos taurus, UniProt P00766).
T1 construct: freshly prepared α-chymotrypsin from bovine pancreas type II, ≥40 U/mg; purchased; host or cells: bovine pancreas
The data set can be described thus: Chymotrypsin stability test. The data set is classed as in vitro ADME, bovine. Conditions: bovine, pH 8; read-out: t1/2 chymotrypsin stability assay (converted). How it is done:
(§1) Assays were performed using freshly prepared α-chymotrypsin from bovine pancreas type II, ≥40 U/mg. The enzyme was initially reconstituted in HCl […] (1 μg/μL), and kept in ice until used. Peptides stock solutions were prepared in assay buffer (50 mM Tris.HCl pH=8.0, 560 μM calcium chloride, 0.1% Tween-20) containing <3% of DMSO. The reactions were performed at a 200 μL scale, in assay buffer, at final concentrations of 50 μM for peptide and […] for α-chymotrypsin (10 μL from the reconstitution solution). The mixture was incubated at 37° C. and aliquots were withdrawn in portions of 25 μL at different time points for analysis. The removed aliquots were mixed with 25 μL of water 1% TFA, and then treated with a column for detergent removal following the manufacturer's protocol (Pierce, Catalog #:87776). The rate of peptide proteolysis was monitored by HPLC and HPLC-MS analysis. Control experiments were carried out under the same conditions but using BSA instead of α-chymotrypsin.

Data set [1] concerns the target T2, α-chymotrypsin from bovine pancreas type II (Bos taurus, UniProt P00766).
T2 construct: freshly prepared α-chymotrypsin from bovine pancreas type II, ≥40 U/mg; purchased; host or cells: bovine pancreas
The data set can be described thus: Chymotrypsin stability test. The data set is classed as in vitro ADME. Conditions: HPLC and LC/MS monitoring. As to the method: as §1

A short description of another data set: circular dichroism. Conditions: deionized water; pH unbuffered; 20 °C; 25 uM.
The nature of another data set: Plasma stability test. Conditions: human plasma, 37° C. Format: in vitro ADME. As to the method:
1 mM stock solution of the corresponded peptide was prepared in PBS buffer (pH 7.4). Next, 50 μL from […] this solution were added to 1 mL of human plasma (Sigma-Aldrich, P9523). The mixture was incubated at 37° C. with mechanical shaking at 300 rpm. Aliquots were withdrawn in portions of 150 μL at different time points for analysis and mixed with 60 μL ACN/EtOH (1:1 v/v) for plasma protein precipitation. After centrifugation at 12000 rpm for 5 min, the supernatant was collected and analyzed by HPLC and HPLC-MS.

Data set [2] is described as follows: Circular dichroism (helicity). Conditions: CD in water, 20° C. The data set is classed as physicochemical. How it is done: Circular dichroism spectra were recorded on a CHIRASCAN™ spectrometer. Peptides were dissolved in deionized water, at a concentration of 25 μM. CD signal was monitored at 1 nm intervals from 180 to 260 nm with a 1-mm path quartz cuvette. The data reported is the average of three scans, subtracting the background. The helical content of each peptide was determined using prism 7 software, with molar ellipticity [θ][deg·cm^2dmol^−1] being calculated using the following formula: [θ]=1000000×0/(C×#of residues×l), where θ is the ellipticity read out from Chirascan, C is the concentration of peptide samples in μM, l is the pathlength of the cuvette measured in mm. The percentage helicity was calculated with formula:% Hellicity=100×[θ]222/[θ]max222, where [θ]max222=−31500×[1−([…])].

Turning to `CC[C@H](C)[C@H](NC(=O)[C@H](CCCCN)NC(=O)[C@@H]1CSCCCSC[C@H](NC(=O)[C@@H](NC(C)=O)C(C)C)C(=O)N[C@@H](CC(N)=O)C(=O)N[C@@H](CCC(=O)O)C(=O)N[C@@H](CCC(=O)O)C(=O)N1)C(=O)N[C@@H](Cc1c[nH]c2ccccc12)C(=O)N[C@@H](CCCCN)C(=O)N[C@@H](CCCCN)C(=O)N[C@@H](CC(N)=O)C(=O)N[C@H](C(=O)N1CCC[C@H]1C(=O)N[C@@H](Cc1ccccc1)C(=O)N[C@@H](CC(C)C)C(N)=O)[C@@H](C)O` [24 (GN-Z24), V[CNEEC](CH2)3KIWKKNTPFL] (Ac-VCNEECKIWKKNTPFL-NH2; linker 2-6 via X1; C-terminus assumed), the half-life at 50 μM at α-chymotrypsin was 20.5 h. For the same molecule, the “stability to chymotrypsin proteolysis” value in data set [1] is recorded as “enhanced stability; also recorded: marked protection”.

For “Ac-TVDKIASALSVLAEEVPQN-NH2 [compound 1, reference compound]”, the helicity (in “circular dichroism”; in data set [2]) was 4.8% throughout. Further, in “Plasma stability test”, the “time to full degradation in plasma” value worked out at 5 min.
